Reference: EP2271935B1, “METHOD AND KIT FOR THE EX VIVO EVALUATION OF THE RESPONSE OF A TUMOR TO CONDITIONS TO BE TESTED” (Universität Leipzig, priority 2008, dated 2009)

Tested on: epithelial cell line KB (DSMZ ACC 136)
Test: MTT assay of proliferation under varied riboflavin content and light exposure
Assay type: cell-based, human
From the text: To address this question, three media, a) the RPMI 1640 without riboflavin and phenol red that is used in the method according to the invention and was manufactured according to our specifications by Biochrom, as well as two different RPMI 1640 charges purchased from Invitrogen which were each containing 532 nmol/L riboflavin, b) a phenol red-free (Gibco 11835), and c) a conventional RPMI 1640 (Gibco 21875) with 13.284 µmol/L phenol red. All media were supplemented with 2 mmol/L L-alanyl-1-glutamine as stabilized glutamine source (Biochrom K0302 Lot 0755 S) and the same amount of 10% (v/v) of heat-inactivated fetal calf serum (FCS) that was purchased from Invitrogen (Lot 41Q7554K) with a yield of 198 nmol/L riboflavin. […] These medium concentrations define the riboflavin concentrations in controls (see below).
In addition to the influences exerted by the different types of media alone, the riboflavin-dependent impact on the outcome of the docetaxel treatment was investigated. For this purpose 100 µl/well of docetaxel dilutions containing threefold the concentration indicated were added into the wells of microwell plates. The following seven docetaxel concentrations were tested: 19.38, 38.75, 77.5, 155, 310, 620, and 1,240 pmol/L.
To examine photoactivation-dependent riboflavin-mediated effects disturbing the outcome of ex-vivo chemoresponse-evaluation by conventional cell culture medium, and in particular in the absence of flavin-protecting experimental conditions, varying amounts of riboflavin were added. A stock solution of 200 µM (-)-riboflavin (CAS 83-68-5, Sigma R9504, FW=376.37 g/mol, purity >99%, cell culture tested) in phosphate buffered saline was diluted to adjust in each case the highest final concentration in culture (this means: after completion of the assay by addition of the other two components to the final assay volume of 300 µL) to exactly 10 µmol/L. Serial log10-dilutions were made from this concentration in each corresponding medium. These gave final concentrations in cell culture of 10.000, 1.018, 0.12, and 0.03 µmol/L in the case of medium a) (the medium according to the method of the invention), and concentrations of 10.000, 1.449, 0.594, and 0.508 µmol/L using media b) and c).
In general, each combination of riboflavin and docetaxel were tested in duplicate, and controls without additional riboflavin in quadruplicate for each experimental setting in the same 96-well plate. The experimental conditions were as follows: For each of the used media, two different plates were prepared simultaneously and either handled completely under flavin-protecting conditions (illumination only by sodium discharge lamps with an emission wavelength of 589 nm [i]), or in the same bench (Thermo MSC 12) with the installed light inside their working chamber switched on. The dilution of docetaxel and those of riboflavin in the particular medium were prepared for all four plates of each medium type prior to the other working steps under flavin-protecting conditions. Thus the administrations of these dilutions took about 20 min either under flavin-protecting conditions or illuminated conditions. After completed preparation of the plates that thereafter contained 200 µL of both diluted compounds, the plates were incubated 2 h in the incubator to allow for adjustment of the appropriate pH.
In between the stock culture of KB was harvested by trypsination of a 3-days stock culture (exponential growth phase). Stock cultures of KB cells always were grown without any antibiotic or antimycotic in phenol red- and riboflavin-free RPMI 1640 supplemented with 10% (v/v) FCS and were adapted to this medium for more than five passages. They were always handled at room temperature or warmer and were never exposed to light other than the light of a sodium discharge lamp with an emission wavelength of 589 nm for at least five passages. […]

Cc1cc2nc3c(=O)[nH]c(=O)nc-3n(C[C@H](O)[C@H](O)[C@H](O)CO)c2cc1C [riboflavin, (-)-riboflavin]
toxicity of riboflavin to KB cells (10 µmol/L riboflavin; plate 03, medium a), bench lighting below 30 min): complete die off of the KB cells
riboflavin concentrations leading to complete dying of all KB cells (exposed to daylight 30 min (plates 02, 04, 06, 08, 10, and 12)): above 594 nmol/L
